Experiments:
[1] = biological target: T1, GAL4(DBD)-mouse PXR(LBD) (Mus musculus, UniProt O54915); test: luciferase reporter transactivation in HG5LN GAL4-mPXR cells; format: cell-based; conditions: dabrafenib, SR12813, PCN 3 μM; clotrimazol 1 μM
T1 construct: together with the pSG5-GAL4(DBD)-h/m/zfPXR(LBD)-puro plasmids; expressed in transfected cells; host or cells: HeLa (HG5LN)
T1 sequence (O54915 143-430 limits assumed): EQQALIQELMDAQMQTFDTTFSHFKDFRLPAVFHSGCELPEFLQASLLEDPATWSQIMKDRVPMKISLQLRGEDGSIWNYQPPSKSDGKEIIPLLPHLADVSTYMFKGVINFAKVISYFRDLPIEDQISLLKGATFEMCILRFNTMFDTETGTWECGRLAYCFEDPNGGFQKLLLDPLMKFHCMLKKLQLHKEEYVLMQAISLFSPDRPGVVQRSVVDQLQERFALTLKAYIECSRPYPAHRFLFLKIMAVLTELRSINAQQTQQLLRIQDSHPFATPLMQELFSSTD
From the text: The different reporter cell lines used in this study are summarized in Supplementary Table S1. HG5LN GAL4-m/zfPXR cells were obtained as previously reported for HG5LN GAL4-hPXR cells. Briefly, Hela cells were stably transfected with the GAL4RE5-βGlob-Luc-SVNeo plasmid alone or together with the pSG5-GAL4(DBD)-h/m/zfPXR(LBD)-puro plasmids leading to the HG5LN and HG5LN-h/m/zfPXR cell lines, respectively. HG5LN GAL4-hCAR and GAL4-hCAR-APYLT cells were obtained in the same way.

[2] = system: hPXR target genes (CYP3A4, ABCG2, FGF19) in LS174T-hPXR cells; test: RT-qPCR of hPXR target genes in LS174T-hPXR cells; format: cell-based, human
Description: (§1) Total RNA was isolated and purified using “Zymo Research—Quick RNA mini prep” kit for LS174T-hPXR cells and using Trizol reagent (Thermo Fisher Scientific, Illkirch-Graffenstaden, France) for primary human hepatocytes and HepaRG according to the manufacturer’s protocol. The concentration and the purity of isolated RNA were measured using a spectrophotometer NanoVue (GE health care life sciences, Velizy-Villacoublay, France). Reverse transcription was performed with the qScript cDNA SuperMix (VWR, Fontenay-sous-Bois, France) for LS174-hPXR and HepaRG cells and using a random hexaprimer and the MMLV Reverse Transcriptase Kit (Life Technologies) for primary human hepatocytes. Quantitative polymerase chain reactions were performed using SYBR green (Qiagen, Les Ulis, France) and specific primers (Supplementary Table S2) with the LightCycler®-480 real-time PCR system (Roche Diagnostics, Meylan, France). The relative amount of RNA was calculated with the 2^ΔΔCT method, and gene expression was normalized using GAPDH or RPLP0. In Figure 5AB, the level of expression was compared with the mean level of the corresponding gene expression in DMSO-treated cells and expressed as n-fold ratio.

[3] = system: LS174T-hPXR cells; test: LS174T-hPXR proliferation assay (P-screen) after SPA70 pretreatment; format: cell-based, human; conditions: pretreated with SPA70 100 nM; 7 days; read-out: potency (EC50) on proliferation
Description: We developed a new proliferation test that we called the P-screen to measure the effects of compounds with PXR activity on the growth of LS174T-hPXR cells. This test uses the same principle as that for E-screen that was used for measuring the effects of estrogens on the proliferation of MCF-7 breast cancer cells. […] The medium was then removed, and cells were treated with increasing concentrations of the different compounds for 7 days. Medium was removed, and 0.1 mL of MTT solution (0.5 mg/mL) was added to each well. The MTT-containing medium was removed 4 h after incubation, and DMSO was added to each well. After shaking, the plates were read in absorbance at 540 nm. Results were expressed as percentage of proliferation with respect to the hormone-free control (100%). Data were obtained by dose–response curves plotted as percentage of proliferation as a function of concentrations.

[4] = system: CYP3A4 and CYP2B6 genes in primary human hepatocytes; test: RT-qPCR of hPXR target genes in primary human hepatocytes; format: cell-based; conditions: three donors, 48 h
From the text: Liver samples were obtained from the Biologic Resource Center of Montpellier University Hospital (CRB-CHUM; http://www.chumontpellier.fr; Biobank ID: BB-0033-00031), and this study benefitted from the expertise of Dr. Benjamin Rivière (hepatogastroenterology sample collection) and Dr. Edouard Tuaillon (CRB-CHUM manager). Samples were obtained from livers of adult patients who underwent liver resections for medical reasons unrelated to our research program, or from anonymous donors when the liver was considered unsuitable for organ transplantation. The use of human specimens for scientific purposes was approved by the French National Ethics Committee. Written or oral informed consent was obtained from each patient or family prior to surgery. The clinical characteristics of the liver donors are presented in Supplementary Table S2. Hepatocytes were isolated by using a two-step perfusion protocol and cultured as described previously.
as §1

SMILES | activation of mouse PXR LBD (luciferase) [1] | ABCG2 expression increase ([2]; 24 h) | CYP3A4 expression increase ([2]; 24 h) | concentration of maximal induction of CYP3A4 expression ([2]; 24 h) | FGF19 expression induction ([2]; highest concentration used (3 µM)) | EC50 [3] | induction of CYP2B6 gene expression [4] | induction of CYP3A4 gene expression [4]
CC(=O)[C@H]1[C@H](C#N)C[C@H]2[C@@H]3CC=C4C[C@@H](O)CC[C@]4(C)[C@H]3CC[C@@]21C [PCN, Pregnenolone 16 alpha-carbonitrile] | Specific agonist effects | – | – | – | – | – | – | –
CCOP(=O)(OCC)C(=Cc1cc(C(C)(C)C)c(O)c(C(C)(C)C)c1)P(=O)(OCC)OCC [SR12813] | – | 12 fold | 190 fold | 1000 nM | 4 fold | 38 nM | significantly induce | significantly induce

— publication PMC7407672 (Cells, 2020)
